Experimental data reported in patent publication US12643895B2, “Heteroaryl-substituted pyrazolo-pyridine protein kinase inhibitors for promoting liver regeneration or reducing or preventing hepatocyte death” (HepaRegeniX GmbH, priority 2019, dated 2026).
pIC50: −log10 of the molar value.

Legend:
Assay type in all cases: biochemical
[1] = target: T1, JNK1 (Homo sapiens, UniProt P45983); test: 33PanQinase radiometric kinase assay, JNK1 (off-target); settings: ratio IC50(off-target)/IC50(MKK4)
T1 construct: purchased ProQinase GmbH, Freiburg, Germany (assay service)
Experimental: (§1) The kinase activities of the compounds of the invention were measured using the 33PanQinase® Assay Service provided by ProQinase GmbH, Freiburg, Germany. Details of the assay conditions are disclosed on the website of ProQinase (https://www.proqinase.com/products-services-biochemical-assay-services/kinase-assays). In brief, all kinase assays were performed in 96-well FlashPlates™ from PerkinElmer (Boston, MA, USA) in a 50 μl reaction volume. The reaction cocktail was pipetted in four steps in the following order: • 20 μl of assay buffer (standard buffer) • 5 μl of ATP solution (in H2O) • 5 μl of test compound (in 10% DMSO) • 20 μl enzyme/substrate mix
(§2) The reaction cocktails were incubated at 30° C. for 60 minutes. The reaction is stopped with 50 μl of 2% (v/v) H3PO4, plates were aspirated and washed two times with 200 μl 0.9% (w/v) NaCl. Incorporation of ^33Pi was determined with a microplate scintillation counter (Microbeta, Wallac).
(§3) All assays were performed with a BeckmanCoulter/SAGIAN™ Core System.
(§4) In case of single concentration assays, the potency of the test compound is expressed as % residual activity. […] The fitting method used was a least-squares fit.
(§5) Selectivity of test compounds against BRaf, JNK1 and MKK7, altogether denominated as off-targets was calculated by the ratio of IC50 (off-target)/IC50 (MKK4) and categorized as follows: […]

[2] = target: T2, BRaf (Homo sapiens, UniProt P15056); test: 33PanQinase radiometric kinase assay, BRaf (off-target); settings: ratio IC50(off-target)/IC50(MKK4)
T2 construct: purchased ProQinase GmbH, Freiburg, Germany (assay service)
Experimental: as §1, §2, §3, §4, §5

[3] = target: T3, MKK4 (Homo sapiens, UniProt P45985); test: 33PanQinase radiometric kinase assay, MKK4; settings: category based on IC50-values; ATP at apparent Km; read-out: Potency MKK4
T3 construct: purchased ProQinase GmbH, Freiburg, Germany (assay service)
T3 sequence (P45985 1-399): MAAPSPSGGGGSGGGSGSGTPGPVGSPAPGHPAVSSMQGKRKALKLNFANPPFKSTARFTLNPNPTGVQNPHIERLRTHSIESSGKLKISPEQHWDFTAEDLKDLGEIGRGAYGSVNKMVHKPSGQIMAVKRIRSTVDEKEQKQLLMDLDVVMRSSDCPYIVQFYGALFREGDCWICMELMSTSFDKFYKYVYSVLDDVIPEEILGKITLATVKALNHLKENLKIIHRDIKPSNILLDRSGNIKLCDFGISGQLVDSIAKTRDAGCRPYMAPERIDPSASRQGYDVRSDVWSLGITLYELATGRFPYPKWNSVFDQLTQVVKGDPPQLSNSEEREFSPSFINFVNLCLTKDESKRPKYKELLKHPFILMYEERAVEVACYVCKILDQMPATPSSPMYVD
Experimental: as §1, §2, §3, §4

[4] = target: T4, MKK7 (Homo sapiens, UniProt O14733); test: 33PanQinase radiometric kinase assay, MKK7 (off-target); settings: ratio IC50(off-target)/IC50(MKK4)
T4 construct: purchased ProQinase GmbH, Freiburg, Germany (assay service)
T4 sequence (O14733 1-419): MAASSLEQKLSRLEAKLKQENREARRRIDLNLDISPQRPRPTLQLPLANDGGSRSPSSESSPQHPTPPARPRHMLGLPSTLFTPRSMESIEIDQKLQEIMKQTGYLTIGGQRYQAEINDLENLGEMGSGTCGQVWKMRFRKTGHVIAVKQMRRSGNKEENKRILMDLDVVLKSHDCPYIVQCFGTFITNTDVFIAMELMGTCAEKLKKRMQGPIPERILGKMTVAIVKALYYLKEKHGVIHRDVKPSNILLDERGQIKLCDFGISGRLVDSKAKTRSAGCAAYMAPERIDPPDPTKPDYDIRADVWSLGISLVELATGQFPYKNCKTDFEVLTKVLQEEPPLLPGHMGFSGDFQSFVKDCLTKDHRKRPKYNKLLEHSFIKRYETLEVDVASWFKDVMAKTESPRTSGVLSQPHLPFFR
Experimental: as §1, §2, §3, §4, §5

T1 sequence (P45983 whole entry): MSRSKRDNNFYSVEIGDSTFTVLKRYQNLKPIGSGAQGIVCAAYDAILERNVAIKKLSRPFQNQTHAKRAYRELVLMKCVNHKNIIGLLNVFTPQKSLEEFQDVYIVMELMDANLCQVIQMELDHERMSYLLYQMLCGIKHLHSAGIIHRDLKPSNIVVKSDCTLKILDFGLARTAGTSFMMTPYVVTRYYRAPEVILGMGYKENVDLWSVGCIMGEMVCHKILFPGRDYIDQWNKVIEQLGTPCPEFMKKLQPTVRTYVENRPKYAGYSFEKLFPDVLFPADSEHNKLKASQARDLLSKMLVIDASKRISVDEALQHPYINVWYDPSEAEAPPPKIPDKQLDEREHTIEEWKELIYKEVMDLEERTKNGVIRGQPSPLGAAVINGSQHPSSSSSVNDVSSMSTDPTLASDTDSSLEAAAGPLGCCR
T2 sequence (P15056 whole entry): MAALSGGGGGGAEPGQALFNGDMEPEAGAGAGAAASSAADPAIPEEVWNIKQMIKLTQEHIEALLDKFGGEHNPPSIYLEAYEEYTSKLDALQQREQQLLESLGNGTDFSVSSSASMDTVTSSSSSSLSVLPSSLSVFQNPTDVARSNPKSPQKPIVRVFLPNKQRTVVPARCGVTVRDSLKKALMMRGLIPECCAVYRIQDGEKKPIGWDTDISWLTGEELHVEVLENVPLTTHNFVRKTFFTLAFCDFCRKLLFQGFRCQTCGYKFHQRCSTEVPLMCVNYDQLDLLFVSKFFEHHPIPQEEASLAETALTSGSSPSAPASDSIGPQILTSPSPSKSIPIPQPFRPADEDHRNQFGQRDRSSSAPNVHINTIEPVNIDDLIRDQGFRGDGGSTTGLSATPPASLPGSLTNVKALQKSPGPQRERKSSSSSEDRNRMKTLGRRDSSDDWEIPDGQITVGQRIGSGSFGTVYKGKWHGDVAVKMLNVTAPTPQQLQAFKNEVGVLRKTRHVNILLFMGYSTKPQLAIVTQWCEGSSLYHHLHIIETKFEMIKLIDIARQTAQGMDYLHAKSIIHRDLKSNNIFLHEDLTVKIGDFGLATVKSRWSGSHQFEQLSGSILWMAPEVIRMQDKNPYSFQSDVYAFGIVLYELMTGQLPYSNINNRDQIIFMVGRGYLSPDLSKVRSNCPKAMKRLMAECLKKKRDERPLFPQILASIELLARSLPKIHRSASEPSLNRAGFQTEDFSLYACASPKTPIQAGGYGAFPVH

Selectivity JNK1 [1] | Selectivity Braf [2] | pIC50 [3] | Selectivity MKK7 [4] | Structure (SMILES)
+++ (IC50(off-target)/IC50(MKK4) > 100) | +++ (IC50(off-target)/IC50(MKK4) > 100) | > 7.00 | +++ (IC50(off-target)/IC50(MKK4) > 100) | CCCS(=O)(=O)Nc1c(F)ccc(C(=O)c2n[nH]c3ncc(-c4cnc(C(C)(C)C)nc4)cc23)c1F [Example 21, N-(3-(5-(2-(tert-butyl)pyrimidin-5-yl)-1H-pyrazolo[3,4-b]pyridine-3-carbonyl)-2,6-difluorophenyl)propane-1-sulfonamide]
+++ (IC50(off-target)/IC50(MKK4) > 100) | +++ (IC50(off-target)/IC50(MKK4) > 100) | > 7.00 | +++ (IC50(off-target)/IC50(MKK4) > 100) | CCCS(=O)(=O)Nc1c(F)ccc(C(=O)c2n[nH]c3ncc(-c4cnc(SC)nc4)cc23)c1F [Example 22, N-(2,6-difluoro-3-(5-(2-(methylthio)pyrimidin-5-yl)-1H-pyrazolo[3,4-b]pyridine-3-carbonyl)phenyl)propane-1-sulfonamide]
+++ (IC50(off-target)/IC50(MKK4) > 100) | +++ (IC50(off-target)/IC50(MKK4) > 100) | > 7.00 | +++ (IC50(off-target)/IC50(MKK4) > 100) | CCCS(=O)(=O)Nc1c(F)ccc(C(=O)c2n[nH]c3ncc(-c4cnc(C(C)C)nc4)cc23)c1F [Example 23, N-(2,6-difluoro-3-(5-(2-isopropylpyrimidin-5-yl)-1H-pyrazolo[3,4-b]pyridine-3-carbonyl)phenyl)propane-1-sulfonamide]
+++ (IC50(off-target)/IC50(MKK4) > 100) | +++ (IC50(off-target)/IC50(MKK4) > 100) | > 7.00 | +++ (IC50(off-target)/IC50(MKK4) > 100) | CCCS(=O)(=O)Nc1c(F)ccc(C(=O)c2n[nH]c3ncc(-c4cccnc4)cc23)c1F [Example 27, N-(2,6-difluoro-3-(5-(pyridin-3-yl)-1H-pyrazolo[3,4-b]pyridine-3-carbonyl)phenyl)propane-1-sulfonamide]
+++ (IC50(off-target)/IC50(MKK4) > 100) | +++ (IC50(off-target)/IC50(MKK4) > 100) | 6.00 to 7.00 | +++ (IC50(off-target)/IC50(MKK4) > 100) | CCCS(=O)(=O)Nc1c(F)ccc(C(=O)c2n[nH]c3ncc(-c4cncnc4C)cc23)c1F [Example 29, N-[2,6-difluoro-3-[5-(4-methylpyrimidin-5-yl)-1H-pyrazolo[3,4-b]pyridine-3-carbonyl]phenyl]propane-1-sulfonamide]
+++ (IC50(off-target)/IC50(MKK4) > 100) | +++ (IC50(off-target)/IC50(MKK4) > 100) | 6.00 to 7.00 | +++ (IC50(off-target)/IC50(MKK4) > 100) | CCCS(=O)(=O)Nc1c(F)ccc(C(=O)c2n[nH]c3ncc(-c4cnc(C)nc4C)cc23)c1F [Example 30, N-[3-[5-(2,4-dimethylpyrimidin-5-yl)-1H-pyrazolo[3,4-b]pyridine-3-carbonyl]-2,6-difluoro-phenyl]propane-1-sulfonamide]
+++ (IC50(off-target)/IC50(MKK4) > 100) | +++ (IC50(off-target)/IC50(MKK4) > 100) | 6.00 to 7.00 | +++ (IC50(off-target)/IC50(MKK4) > 100) | CCCS(=O)(=O)Nc1c(F)ccc(C(=O)c2n[nH]c3ncc(-c4cnc(C5CC5)nc4C)cc23)c1F [Example 31, N-(3-(5-(2-cyclopropyl-4-methylpyrimidin-5-yl)-1H-pyrazolo[3,4-b]pyridine-3 carbonyl)-2,6-difluorophenyl)propane-1-sulfonamide]
+++ (IC50(off-target)/IC50(MKK4) > 100) | +++ (IC50(off-target)/IC50(MKK4) > 100) | 6.00 to 7.00 | +++ (IC50(off-target)/IC50(MKK4) > 100) | CCCS(=O)(=O)Nc1c(F)ccc(C(=O)c2n[nH]c3ncc(-c4cnc(C5CC5)nc4SC)cc23)c1F [Example 32, N-(3-(5-(2-cyclopropyl-4-(methylthio)pyrimidin-5-yl)-1H-pyrazolo[3,4-b]pyridine-3 carbonyl)-2,6-difluorophenyl)propane-1-sulfonamide]
+++ (IC50(off-target)/IC50(MKK4) > 100) | +++ (IC50(off-target)/IC50(MKK4) > 100) | > 7.00 | +++ (IC50(off-target)/IC50(MKK4) > 100) | CCCS(=O)(=O)Nc1c(F)ccc(C(=O)c2n[nH]c3ncc(-c4cnc(SC)nc4C)cc23)c1F [Example 33, N-[2,6-difluoro-3-[5-(4-methyl-2-methylsulfanyl-pyrimidin-5-yl)-1H-pyrazolo[3,4-b]pyridine-3-carbonyl]phenyl]propane-1-sulfonamide]
+++ (IC50(off-target)/IC50(MKK4) > 100) | +++ (IC50(off-target)/IC50(MKK4) > 100) | > 7.00 | +++ (IC50(off-target)/IC50(MKK4) > 100) | CCCS(=O)(=O)Nc1c(F)ccc(C(=O)c2n[nH]c3ncc(-c4cnc(OC)nc4OC)cc23)c1F [Example 34, N-[3-[5-(2,4-dimethoxypyrimidin-5-yl)-1H-pyrazolo[3,4-b]pyridine-3-carbonyl]-2,6-difluoro-phenyl]propane-1-sulfonamide]
+++ (IC50(off-target)/IC50(MKK4) > 100) | +++ (IC50(off-target)/IC50(MKK4) > 100) | > 7.00 | +++ (IC50(off-target)/IC50(MKK4) > 100) | CCCS(=O)(=O)Nc1c(F)cc(F)c(C(=O)c2n[nH]c3ncc(-c4cnc(C5CC5)nc4)cc23)c1F [Example 35, N-(3-(5-(2-cyclopropylpyrimidin-5-yl)-1H-pyrazolo[3,4-b]pyridine-3-carbonyl)-2,4,6-trifluorophenyl)propane-1-sulfonamide]
+++ (IC50(off-target)/IC50(MKK4) > 100) | +++ (IC50(off-target)/IC50(MKK4) > 100) | > 7.00 | +++ (IC50(off-target)/IC50(MKK4) > 100) | CCCS(=O)(=O)Nc1c(F)ccc(C(=O)c2n[nH]c3ncc(-c4ccncc4CC)cc23)c1F [Example 36, N-[3-[5-(3-ethyl-4-pyridyl)-1H-pyrazolo[3,4-b]pyridine-3-carbonyl]-2,6-difluoro-phenyl]propane-1-sulfonamide]
+++ (IC50(off-target)/IC50(MKK4) > 100) | +++ (IC50(off-target)/IC50(MKK4) > 100) | > 7.00 | +++ (IC50(off-target)/IC50(MKK4) > 100) | CCCS(=O)(=O)Nc1c(F)ccc(C(=O)c2n[nH]c3ncc(-c4ccncc4C#N)cc23)c1F [Example 37, N-[3-[5-(3-cyano-4-pyridyl)-1H-pyrazolo[3,4-b]pyridine-3-carbonyl]-2,6-difluoro-phenyl]propane-1-sulfonamide]

Structure (SMILES) | Selectivity JNK1 [1] | Selectivity Braf [2] | pIC50 [3] | Selectivity MKK7 [4]
CCCS(=O)(=O)Nc1c(F)ccc(C(=O)c2n[nH]c3ncc(-c4ccc(C(=O)O)nc4)cc23)c1F [Example 28, 5-(3-(2,4-difluoro-3-(propylsulfonamido)benzoyl)-1H-pyrazolo[3,4-b]pyridin-5-yl)picolinic acid] | +++ (IC50(off-target)/IC50(MKK4) > 100) | +++ (IC50(off-target)/IC50(MKK4) > 100) | > 7.00 | ++ (100 ≥ IC50(off-target)/IC50(MKK4) > 10)
